Legend:
[1] = Refractive index (abbe refractometer); assay type: physicochemical; conditions: 25° C., 589 nm, value at 100% by mass by extrapolation
Method: The refractive index of each sample was measured using an abbe refractometer (“NAR-lT” manufactured by ATAGO CO., LTD.) at a temperature of 25° C. and a wavelength of 589 nm. Depending on the species of each sample, the refractive index was measured as follows.
For the after-mentioned 16NDSH, 15NDSH, 26NDSH and 27NDSH; 15DGNDSH; 15DHENDSH; 16DMNDSH and 15DMNDSH; and 16DCNDSH and 15DCNDSH, a sample was dissolved in 1,3-dimethyl-2-imidazolidinone (DMI) to prepare multiple solutions with different concentrations, and the refractive index of each solution was measured at a temperature of 25° C. and a wavelength of 589 nm. From the results of the refractive index at each concentration, the refractive index value at 100% by mass of the concentration was determined by extrapolation.
For the after-mentioned 16NDSHMA, 15NDSHMA, 26NDSHMA and 27NDSHMA; 16NDSHA and 15NDSHA; 15DANDSH; and 15DVNDSH, polymerization may occur during the mixing, and thus a sample was dissolved in a methoquinone/DMI solution (a solution containing 4000 ppm of methoquinone relative to the mass of DMI) to prepare multiple solutions with different concentrations. The refractive index of each solution was measured at a temperature of 25° C. and a wavelength of 589 nm. From the results of the refractive index at each concentration, the refractive index value at 100% by mass of the concentration was determined by extrapolation.
For the after-mentioned 16DANDSH; 16DVNDSH; 16DGNDSH; and 16DHENDSH, a sample was liquid for a while after preparation, and thus the refractive index was measured in the state of an undiluted solution. Further, thiol-ene-based resins (thiol-ene-based resins obtained from 16NDSH or 15NDSH and divinylbenzene) were measured in the same manner. […]

[2] = Dissolubility or compatibility (maximum dissolved concentration, HPLC); assay type: physicochemical; conditions: 25° C.; for Dissolubility, MMA: methyl methacrylate; for Dissolubility, PGMEA: propylene glycol monomethyl ether acetate; for Dissolubility, DMF: N,N-dimethylformamide; for Dissolubility, THF: tetrahydrofuran
Method: In more detail, the sample was added to a predetermined amount of a solvent or a polymerizable component until the sample was no longer dissolved, and the sample content of the liquid layer (the solvent layer) of the resulting mixture was analyzed using an HPLC (“SPD-20A” manufactured by SHIMADZU CORPORATION), and thus the concentration (the maximum dissolved concentration) of the sample in the liquid layer (the solvent layer) was determined as a solubility.

[3] = DMI solutions of different concentrations

Row | Refractive index [1, 3] | Dissolubility, Ethyl acetate [2] | Dissolubility, MMA [2] [% by mass] | Dissolubility, PGMEA [2] [% by mass] | Dissolubility, Styrene [2] [% by mass] | Dissolubility, Toluene [2] | melting point [°C] | Refractive index ([1]; methoquinone/DMI solutions) | Dissolubility, DMF [2] [% by mass] | Dissolubility, Methanol [2] [% by mass] | Dissolubility, THF [2] [% by mass] | SMILES
1 | 1.690 | Freely blended (>90) % by mass | 62.3 | 42.3 | 68.7 | Freely blended (>90) % by mass | 52 to 53 | – | – | – | – | CSc1ccc2c(SC)cccc2c1 [Example 16DMNDSH, 1,6-bis(methylthio)naphthalene]
2 | – | 56.3 % by mass | 55.7 | 44.3 | 59.4 | 58.4 % by mass | 64 to 66 | 1.667 | – | – | – | C=CC(=O)Sc1ccc2c(SC(=O)C=C)cccc2c1 [Example 16NDSHA, 1,6-bis(acryloylthio)naphthalene]
3 | 1.718 | 0.65 % by mass | – | 0.73 | – | 0.64 % by mass | 196 to 197 | – | 3.54 | 0.11 | 4.03 | Sc1ccc2cc(S)ccc2c1 [Example 26NDSH, 2,6-naphthalenedithiol]
4 | 1.721 | 0.90 % by mass | – | 1.05 | – | 0.76 % by mass | 186 to 188 | – | 7.75 | 0.16 | 5.24 | Sc1ccc2ccc(S)cc2c1 [Example 27NDSH, 2,7-naphthalenedithiol]
